Our source for the Ki values is patent US7291621B2, “Substituted biaryl amides C5a receptor modulators” (Neurogen Corporation, priority 2002, dated 2007).

This test concerns the target T1, C5a receptor (Homo sapiens, UniProt P21730).
T1 construct: endogenous in cells; host or cells: U937 cells differentiated with 1 mM dibutyryl cAMP
T1 sequence (P21730 1-350): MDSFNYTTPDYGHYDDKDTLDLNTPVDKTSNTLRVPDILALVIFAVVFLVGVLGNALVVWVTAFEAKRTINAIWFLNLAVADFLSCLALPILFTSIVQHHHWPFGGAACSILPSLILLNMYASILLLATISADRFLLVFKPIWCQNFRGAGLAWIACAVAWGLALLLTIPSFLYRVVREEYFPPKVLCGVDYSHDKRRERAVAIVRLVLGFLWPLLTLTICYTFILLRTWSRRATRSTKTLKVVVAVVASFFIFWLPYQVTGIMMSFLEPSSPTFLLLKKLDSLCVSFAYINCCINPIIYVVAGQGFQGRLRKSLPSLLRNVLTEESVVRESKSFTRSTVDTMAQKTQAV
As to the kind of experiment: standard assay of C5a receptor mediated calcium mobilization. The test is classed as cell-based. The following applies: asterisk = tested in C5a receptor mediated calcium mobilization assay, read-out: Ca2+ Mob. The essentials:
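U937 cells differentiated 48 hrs with 1 mM dibutyryl cAMP, loaded with Fluo-3 (10 μg/mL) and read by FLIPR fluorescence (ex 480/em 530). For antagonism, cells preincubated 1 h with 1 μM compound before 0.3 nM human recombinant C5a; activity scored as fold decrease in response versus C5a alone.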
In general terms: A change in cytosolic calcium serves as a functional read-out for many receptors and channels.

Where two headings read alike, the source gives them in different places.

For `O=C(c1cc(Cl)ccc1-c1ccccc1)N(Cc1ccccc1)Cc1ccc2c(c1)OCC2` [compound 144, N-benzyl-4-chloro-N-(2,3-dihydro-1-benzofuran-6-ylmethyl)-1,1′-biphenyl-2-carboxamide], the Ki (Table I) is less than 1 µM.

For the compound `COc1cccc(CN(CCc2ccccc2)C(=O)c2cc(Cl)ccc2-c2ccccc2)c1` [compound 145, 4-chloro-N-(3-methoxybenzyl)-N-(2-phenylethyl)-1,1′-biphenyl-2-carboxamide], the Ki (Table I) is less than 1 µM.

Regarding `O=C(c1cc(Cl)ccc1-c1ccccc1)N(Cc1ccccc1)Cc1cccc2ccccc12` [compound 146, N-benzyl-4-chloro-N-(1-naphthylmethyl)-1,1′-biphenyl-2-carboxamide], the Ki (Table I) was less than 1 µM.

Regarding `Cc1ccc(-c2ccccc2C(=O)N(Cc2ccccc2)Cc2cc(C)c(O)c(C)c2)s1` [compound 147, N-benzyl-N-(4-hydroxy-3,5-dimethylbenzyl)-2-(5-methylthien-2-yl)benzamide], where the note is “Table I”, the Ki was less than 1 µM.

As for `Cc1ccc(-c2ccccc2C(=O)N(Cc2ccccc2)Cc2ccc(OC(F)F)cc2)s1` [compound 148, N-benzyl-N-[4-(difluoromethoxy)benzyl]-2-(5-methylthien-2-yl)benzamide], the Ki (Table I) was less than 1 µM.

As for `Cc1ccc(-c2ccccc2C(=O)N(Cc2ccccc2)Cc2ccc(O)cc2Cl)s1` [compound 149, N-benzyl-N-(2-chloro-4-hydroxybenzyl)-2-(5-methylthien-2-yl)benzamide], the Ki (Table I) was less than 1 µM.

Turning to `Cc1cc(CN(Cc2ccccc2)C(=O)c2ccccc2-c2ccccc2)cc(C)c1O` [compound 150, N-benzyl-N-(4-hydroxy-3,5-dimethylbenzyl)-1,1′-biphenyl-2-carboxamide], where the note is “Table I”, the Ki is less than 1 µM.

For `O=C(c1ccccc1-c1ccccc1)N(Cc1ccccc1)Cc1ccc(OC(F)F)cc1` [compound 151, N-benzyl-N-[4-(difluoromethoxy)benzyl]-1,1′-biphenyl-2-carboxamide], where the note is “Table I”, the Ki was less than 1 µM.

Consider `COc1ccc2ccccc2c1C(=O)N(Cc1ccccc1)Cc1cc(C)c(O)c(C)c1` [compound 217, N-benzyl-N-(4-hydroxy-3,5-dimethylbenzyl)-2-methoxy-1-naphthamide], for which the Ki (Table III) was less than 1 µM.

Consider `COc1ccc2ccccc2c1C(=O)N(CCc1ccccc1)C1Cc2ccccc2C1` [compound 220, 2-Methoxy-naphthalene-1-carboxylic acid indan-2-yl-phenethyl-amide], for which the Ki (Table III) was less than 1 µM.

For the compound `COc1ccc2ccccc2c1C(=O)N(Cc1ccc(C)cc1)C1Cc2ccccc2C1` [compound 223, 2-Methoxy-naphtlalene-1-carboxylic acid (4-methyl-benzyl)-indan-2-yl-amide], the Ki (Table III) is less than 1 µM.

As to `COc1ccc2ccccc2c1C(=O)N(Cc1ccccc1C)C1Cc2ccccc2C1` [compound 224, 2-Methoxy-naphthalene-1-carboxylic acid (2-methyl-benzyl)-indan-2-yl-amide], the Ki (Table III) was less than 1 µM.

As to `COc1ccc2ccccc2c1C(=O)N(Cc1ccc2c(c1)OCO2)C1Cc2ccccc2C1` [compound 228, 2-Methoxy-naphthalene-1-carboxylic acidbenzo[1,3]dioxol-5-ylmethyl-indan-2-yl-amide], the Ki (Table III) is less than 1 µM.

In the case of `Cc1cccc(CN(C(=O)c2c(C)ccc3ccccc23)C2Cc3ccccc3C2)c1` [compound 230, 2-Methyl-naphthalene-1-carboxylic acid (3-methyl-benzyl)-indan-2-yl-amide], the Ki (Table III) was less than 1 µM.

As to `Cc1ccc2ccccc2c1C(=O)N(CCc1ccccc1)C1Cc2ccccc2C1` [compound 235, 2-Methyl-naphthalene-1-carboxylic acid indan-2-yl-phenethyl-amide], the Ki (Table III) was less than 1 µM.

As for `O=C(c1c(O)ccc2ccccc12)N(Cc1ccccc1F)C1Cc2ccccc2C1` [compound 237, 2-Hydroxy-naphthalene-1-carboxylic acid (2-fluoro-benzyl)-indan-2-yl-amide], the Ki (Table III) was less than 1 µM.

`Cc1ccc(CN(C(=O)c2c(O)ccc3ccccc23)C2Cc3ccccc3C2)cc1` [compound 238, 2-Hydroxy-naphthalene-1-carboxylic acid (4-methyl-benzyl)-indan-2-yl-amide]: the Ki (Table III) was less than 1 µM.

Regarding `O=C(c1c(-c2ccccc2)ccc2ccccc12)N(Cc1ccccc1F)C1Cc2ccccc2C1` [compound 239, 2-Phenyl-naphthalene-1-carboxylic acid (2-fluoro-benzyl)-indan-2-yl-amide], under “Table III”, the Ki is less than 1 µM.

Consider `Cc1ccc(CN(C(=O)c2c(-c3ccccc3)ccc3ccccc23)C2Cc3ccccc3C2)cc1` [compound 240, 2-Phenyl-naphthalene 1-carboxylic acid (4-methyl-benzyl)-indan-2-yl-amide], for which the Ki (Table III) was less than 1 µM.
